These results are taken from PubChem BioAssay (NCI).

Holding throughout (assay): DTP human tumour cell line panel, 48 h
For test [1], the system named is MOLT-4 leukemia.
The subject of test [2] is A549 NSCLC.
Test [3] has as its system OVCAR-4 ovarian.
The test system of test [4] is SNB-75 CNS.
Test [5] has as its system SK-OV-3 ovarian.
Test [6] relates to HT29 colon.
Test [7] relates to HS 578T breast.
In test [8] the test system is PC-3 prostate.
Test [9] relates to HOP-62 NSCLC.
Test [10] concerns CAKI-1 renal.

“And” between values parts separate entries of the source, which are not always exact repeats. Identical values can stand only once.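 Each compound was tested at five concentrations against cells in 96-well plates for 48 hours. GI50 marks 50% less growth. At the TGI there is no net growth.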

On to `O=C(/C=C/c1cccnc1)c1ccccc1O`, for which the GI50 in test [1] is 23000 nM; in [2], 37100 nM; in [3], 29.5 µM; in test [4], 16500 nM; in test [5], 33.7 µM; in test [6], 21400 nM. For the same molecule, the GI50 was 35.9 µM in test [7], 21.9 µM in test [8], 17.5 µM in test [9] and 17300 nM in test [10]. Moreover, the TGI in test [1] is 73.5 µM; in [2], > 100 µM; in test [3], > 100 µM; in [4], 59.1 µM; in [5] it was > 100 µM; in test [6], 58.7 µM. The TGI is > 100 µM in test [7], 66.8 µM in test [8], 45.5 µM in test [9] and 42.4 µM in test [10].
Regarding `CCN(CC(COc1ccc2c(c1)[n+]([O-])nc(N)[n+]2[O-])OC(C)=O)C(C)=O` (configuration not stated), the total growth inhibition concentration (TGI) is > 100 µM in test [1]; > 100 µM in test [2]; > 100 µM in [3]; > 100 µM in test [4]; 74.9 µM in test [5]; > 100 µM in test [6]. Further, the TGI in test [7], in test [8], in [9] and in [10] was > 100 µM throughout.
Regarding `S=C(N/N=C(/c1ccccc1)c1ccccn1)Nc1cccc(Cl)c1`, the GI50 in [1] is 3.03 nM; in test [2] it was 1820 nM; in test [3] it was 1.1 µM; in [4] it was 608 nM; in test [5], 0.0671 µM; in test [6], 662 nM and 73.8 nM. The GI50 in test [7] is 0.0125 µM; in [8], 0.0264 µM; in [9] it was 2.26 µM; in test [10], 832 nM. Moreover, the TGI in test [2] was 5.56 µM and 7.58 µM; in test [3], 3.67 µM and 15.9 µM; in [4], 2.92 µM and 4.88 µM; in test [5], 2.93 µM and 3.73 µM; in [6], 11.9 µM; in [8], 7.05 µM and 6.71 µM. In addition, the TGI in test [9] was 4.18 µM and 17.7 µM; in test [10] it was 8.78 µM and 6.33 µM.
For `Cc1ccccc1/C=C1\CN(C(=O)OC(C)(C)C)C/C(=C\c2ccccc2C)C1=O`, the GI50 is 2900 nM in [1]; 2820 nM in [2]; 2.6 µM in test [3]; 2710 nM in [4]; 5.77 µM in test [5]; 2860 nM in test [6]. Moreover, the GI50 was 3.99 µM in test [7], 2.5 µM in [8], 3.43 µM in test [9] and 2060 nM in test [10]. In addition, the TGI in test [1] worked out at 21.8 µM; in test [2] it was 9.17 µM; in [3] it was 14.1 µM; in [4] it was 9.34 µM; in test [5], 70.5 µM; in test [6] it was 7.61 µM. Further, the TGI in [7] was determined as 83.1 µM; in test [8], 7.69 µM; in test [9], 11.3 µM; in test [10] it was 4.25 µM.
As for `N=c1ccn2c(n1)O[C@@H]1[C@@H](O)[C@H](CO)O[C@@H]12`, the GI50 is 161 nM in test [1]; 410 nM in [2]; 10.4 µM in test [3]; 1580 nM in test [4]; 2.85 µM in test [5]; 17000 nM in test [6]. Further, the GI50 in test [7] is > 100 µM; in test [8] it was 7.57 µM; in test [9], 0.783 µM. Besides, the TGI is > 100 µM in test [1]; > 100 µM in test [2]; > 100 µM in test [3]; 47.6 µM in test [4]; > 100 µM in test [5]; > 100 µM in test [6]. The TGI in [7] was > 100 µM; in [8], > 100 µM; in test [9], 23 µM; in [10], > 100 µM.
Regarding `O=C1c2cccnc2C(=O)c2c1c(C(=O)OCCN1CCOCC1)c1ccccn21`, the GI50 was 93.8 nM in [1]; 20.5 nM in test [2]; 1.07 µM in test [3]; < 10 nM in [4]; < 0.01 µM in [5]; 316 nM in [6]. For the same molecule, the GI50 was 0.0243 µM in [7], 0.0816 µM in test [8], < 0.01 µM in test [9] and < 18.4 nM in [10]. In addition, the concentration for total growth inhibition (TGI) in [1] was 3.22 µM; in test [2], 1.17 µM; in test [3], 5.29 µM; in test [4] it was 0.572 µM; in [5], 0.0371 µM; in [6], 2.31 µM. Further, the TGI was 10.8 µM in [7], 17.1 µM in [8], < 0.0142 µM in test [9] and 14.6 µM in [10].
As for `COC(=O)c1ccc(C2SCC(=O)N2NC(=O)C(O)c2ccccc2)cc1` (configuration not stated), the GI50 in test [1] was > 100000 nM; in test [2], > 100000 nM; in test [3], > 100 µM; in test [4], > 100000 nM; in test [5] it was > 100 µM; in test [6], > 100000 nM. Also, the GI50 in test [7] was > 100 µM; in test [8], > 100 µM; in test [9] it was > 100 µM; in [10], > 100000 nM. In addition, the TGI in test [1], in [2], in test [3], in test [4], in [5] and in test [6] was > 100 µM each time. The TGI in test [7], in [8], in test [9] and in test [10] was > 100 µM throughout.
`CC(=O)Nc1sc2c(c1-c1nc3ccccc3s1)CNC2`: the GI50 was 2030 nM in test [1]; 2260 nM in test [2]; 3.08 µM in [3]; 1810 nM in test [4]; 4.05 µM in test [5]; 3760 nM in test [6]. Also, the GI50 is 7.05 µM in test [7], 3.37 µM in [8], 2.38 µM in [9] and 2050 nM in test [10]. In addition, the TGI in test [1] came to 9.2 µM; in test [2], 25 µM; in test [3] it was 24.8 µM; in test [4] it was 9.52 µM; in test [5], 39.2 µM; in test [6], 19.4 µM. The concentration for total growth inhibition (TGI) in [7] is 22.6 µM; in test [8], 18.4 µM; in test [9] it was 15.8 µM; in test [10] it was > 50 µM.
In the case of `O=C(O)/C=C\C(=O)Nc1ccc2c(c1)C(=O)c1cc(F)ccc1-2`, the concentration for total growth inhibition (TGI) in test [1], in test [2], in test [3], in test [4], in test [5] and in [6] was > 100 µM throughout. Also, the TGI in test [7], in [8], in test [9] and in [10] was > 100 µM in each case.
For `CN1CCCN(C(c2ccccc2)c2ccc(Br)cc2)CC1` (configuration not stated), the GI50 in test [1] was 3920 nM; in test [2] it was 10900 nM; in test [3] it was 7.63 µM; in test [4] it was 3100 nM; in test [5] it was 3.66 µM; in test [6] it was 2920 nM. The GI50 in test [7] is 2.37 µM; in test [8] it was 2.87 µM; in test [9], 6.52 µM; in [10], 3240 nM. Also, the TGI in [1] was 58.2 µM; in test [2] it was 25.6 µM; in test [3], 20.5 µM; in test [4], 17.9 µM; in test [5] it was 14.5 µM; in [6] it was 13.1 µM. For the same molecule, the TGI in test [7] is 6.35 µM; in [8], 13.5 µM; in test [9] it was 19.3 µM; in [10] it was 13.4 µM.
On to `CC([O-])C(=O)[O-].NCC1CCC1CN.[Pt+4]` (configuration not stated), for which the GI50 is 8710 nM in test [1]; > 10000 nM in test [2]; > 10 µM in [3]; > 10000 nM in test [4]; > 10 µM in [5]; > 10000 nM in [6]. Moreover, the GI50 is > 10 µM in test [7], > 10 µM in [8], > 10 µM in [9] and > 10000 nM in test [10]. In addition, the TGI in test [1], in test [2], in [3], in test [4], in test [5] and in test [6] was > 10 µM throughout. Moreover, the concentration for total growth inhibition (TGI) in [7], in test [8], in test [9] and in test [10] was > 10 µM in each case.
Take `CCCCCCCCCC(CCCC(O)CC(=O)O)OC1OC(COC2OC(C)C(O)C(O)C2O)C(O)C(O)C1OC1OC(CO)C(O)C(O)C1OC1OC(C)C(O)C(O)C1O` (configuration not stated): the GI50 in [1] is > 40000 nM; in test [2], > 40000 nM; in test [3] it was > 40 µM; in test [4], > 40000 nM; in test [5], > 40 µM; in test [6] it was > 40000 nM. The GI50 in test [7] is > 40 µM; in test [8], > 40 µM; in [9], > 40 µM; in test [10], > 40000 nM. For the same molecule, the TGI in test [1], in test [2], in test [3], in test [4], in test [5] and in test [6] was > 40 µM in each case. The TGI in [7], in test [8], in test [9] and in [10] was > 40 µM in each case.
